Assay [1] concerns the target T1, Lanosterol synthase (Rattus norvegicus, UniProt P48450).
T1 sequence (P48450 whole entry): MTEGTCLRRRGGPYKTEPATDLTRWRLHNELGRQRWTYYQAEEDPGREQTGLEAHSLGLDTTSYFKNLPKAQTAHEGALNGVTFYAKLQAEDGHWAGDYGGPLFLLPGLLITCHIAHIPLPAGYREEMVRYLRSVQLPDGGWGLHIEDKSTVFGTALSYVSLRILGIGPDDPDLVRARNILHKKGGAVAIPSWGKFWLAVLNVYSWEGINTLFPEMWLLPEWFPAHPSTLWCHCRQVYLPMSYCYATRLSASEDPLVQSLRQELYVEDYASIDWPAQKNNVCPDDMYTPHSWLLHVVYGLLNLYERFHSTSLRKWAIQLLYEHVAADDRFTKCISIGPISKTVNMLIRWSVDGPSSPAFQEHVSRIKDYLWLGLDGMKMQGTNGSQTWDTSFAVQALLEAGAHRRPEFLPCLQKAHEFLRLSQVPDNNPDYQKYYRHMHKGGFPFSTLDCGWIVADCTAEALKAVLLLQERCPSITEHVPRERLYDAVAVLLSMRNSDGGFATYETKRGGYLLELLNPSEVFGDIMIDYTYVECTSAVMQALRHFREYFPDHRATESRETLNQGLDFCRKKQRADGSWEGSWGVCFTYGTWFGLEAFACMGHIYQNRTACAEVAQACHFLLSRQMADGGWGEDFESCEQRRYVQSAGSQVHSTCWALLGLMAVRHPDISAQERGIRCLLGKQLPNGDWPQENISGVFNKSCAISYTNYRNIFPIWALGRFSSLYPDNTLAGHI
Briefly: Compound was evaluated for the inhibition of microsomal 2,3-oxidosqualene-lanosterol cyclase in rat liver microsomes. Further details: species or system Microsome. Conditions: read-out: I50.

The target in assay [2] is T1, Lanosterol synthase. Kind of assay: Compound was evaluated for the inhibition of microsomal 2,3-oxidosqualene cyclase in rat liver microsomes. On the set-up: species or system Microsome. Conditions: read-out: I50.

This passage reports IC50 results from ChEMBL document CHEMBL1125522, “2,3-Epoxy-10-aza-10,11-dihydrosqualene, a high-energy intermediate analogue inhibitor of 2,3-oxidosqualene cyclase” (J Med Chem, 1992).

As to `CC(C)=CCC/C(C)=C/CC/C(C)=C/CCCN(C)CC/C=C(\C)CCC1OC1(C)C` (configuration not stated), the IC50 on Lanosterol synthase [1] turned out to be 4.8 µM.

`CC(C)=CCC/C(C)=C/CCC(C)=CCCCN(C)CC/C=C(/C)CCC1OC1(C)C` (configuration not stated): at Lanosterol synthase [2], the IC50 was greater than 20 µM.
